Laboratory results: patent publication US10456414B2, “Methods for treating HCV” (priority 2011, dated 2019)
Several values for one entry are separate records, joined by “and”; a condition that tells them apart may be missing. Identical values can stand only once. Like-named read-outs stand apart in the source and are kept apart here. Marks after values point to notes of the source that are not given here.

What was measured:
[1] = test system: 1b Huh-luc replicon cells; assay: Antiviral combination studies with Compound 5, MacSynergy II; assay type: cell-based, HCV; conditions: for Antagonism Volume / Synergy Volume: in combination with Compound 5, mean ± standard deviation; for Interaction: in combination with Compound 5
Protocol: Combination data were analyzed based on the Bliss Independence model using MacSynergy II software. Results of the combination assays were expressed as mean synergy and antagonism volumes (nM^2) calculated at 95% confidence from two independent experiments performed in triplicate.

[2] = test system: Genotype 1 b replicon cells; assay: Compound combination replicon cure assay, colony formation; conditions: 6 days treatment at the same concentrations, then G418 for 14 days
genotype 1b replicon RNA = assay: Replicon RNA suppression, 6 day assay, QRT-PCR
[3] = HCV genotype 1a replicon assay, CC50 by calcein AM (Biological Example 8); conditions: human, Huh-7 cells carrying an HCV genotype 1a replicon
HCV genotype 1a replicon [4] = assay: HCV genotype 1a replicon assay, EC50 (Biological Example 3); assay type: cell-based; conditions: 3 days
[5] = test system: Huh-7 cells carrying a HCV genotype 1a replicon; assay: Cytotoxicity combination studies with Compound 4, MacSynergy II; conditions: for Antagonism Volume (cytotoxicity) / Synergy Volume (cytotoxicity): in combination with Compound 4, mean ± standard deviation
[6] = test system: HCV 1b replicon system (Huh-luc); assay: Antiviral combination studies with Compound 6, MacSynergy II; conditions: for Antagonism Volume / Synergy Volume: in combination with Compound 6, mean ± standard deviation; for Interaction: in combination with Compound 6
[7] = Drug-drug interactions of co-administered compounds (exposure); assay type: in vivo
Protocol: With respect to Compounds 9 and 10, or pharmaceutically acceptable salts thereof, the composition may comprise 10 mg to 1000 mg per day (according to US 2010/0298257). With respect to Compound 11, or pharmaceutically acceptable salts thereof, the composition may comprise 1 mg to 1000 mg per day (according to US 2010/0081628).

[8] = test system: Huh-7 cells carrying a HCV genotype 1a replicon; assay: HCV genotype 1a replicon assay, CC50 by calcein AM (Biological Example 3); assay type: cell-based; conditions: genotype 1a replicon cells, 3 days
Protocol: The CC50 assay was performed first.

HCV genotype 1a replicon [9] = assay: Antiviral combination studies with Compound 4, MacSynergy II; conditions: for Antagonism Volume / Synergy Volume: in combination with Compound 4, mean ± standard deviation; for Interaction: in combination with Compound 4
HCV genotype 1a replicon [10] = assay: Antiviral combination studies with Compound 10, MacSynergy II; conditions: in combination with Compound 10
HCV genotype 1a replicon [11] = assay: HCV genotype 1a replicon assay, EC50 (Biological Example 8); conditions: Hepatitis C virus, 72 h
[12] = test system: Huh-7 cells carrying an HCV genotype 1a replicon
[13] = test system: GT2b wild-type chimeric replicon (2b NS5B in GT1b backbone); assay: microbe, parasite or virus in culture; assay type: cell-based, HCV; conditions: Hepatitis C virus, 72 h, read-out: EC50 WT
[14] = test system: GT3a NS5B S282T mutant chimeric replicon; assay: microbe, parasite or virus in culture; assay type: cell-based, HCV; conditions: Hepatitis C virus, GT3A, 72 h, read-out: EC50 S282T
[15] = test system: GT3a wild-type chimeric replicon (3a NS5B in GT1b backbone); assay: microbe, parasite or virus in culture; assay type: cell-based, HCV; conditions: Hepatitis C virus, 72 h, read-out: EC50 WT
[16] = test system: GT4a NS5B S282T mutant chimeric replicon; assay: microbe, parasite or virus in culture; assay type: cell-based, HCV; conditions: Hepatitis C virus, GT4A, 72 h, read-out: EC50 S282T
GT1b wild-type replicon = assay: microbe, parasite or virus in culture; assay type: cell-based, HCV; conditions: Hepatitis C virus, 72 h, 3 days
[17] = test system: GT2a NS5B S282T mutant replicon; assay: microbe, parasite or virus in culture; assay type: cell-based, HCV; conditions: Hepatitis C virus, GT2A, 72 h, read-out: EC50 S282T
GT2a wild-type replicon = assay: microbe, parasite or virus in culture; assay type: cell-based, HCV; conditions: Hepatitis C virus, 72 h, 3 days
[18] = human, dose of 800 mg/day; cited from earlier work
[19] = test system: GT4a wild-type chimeric replicon (4a NS5B in GT1b backbone); assay: microbe, parasite or virus in culture; assay type: cell-based, HCV; conditions: Hepatitis C virus, 72 h, read-out: EC50 WT
[20] = test system: GT2b NS5B S282T mutant chimeric replicon; assay: microbe, parasite or virus in culture; assay type: cell-based, HCV; conditions: Hepatitis C virus, GT2B, 72 h, read-out: EC50 S282T
[21] = test system: GT1b NS5B S282T mutant replicon; assay: microbe, parasite or virus in culture; assay type: cell-based, HCV; conditions: Hepatitis C virus, GT1B, 72 h, read-out: EC50 S282T
[22] = single compound at the listed concentration, 6 days, relative to DMSO control (Table XIV)
[23] = Hepatitis C virus, 72 h, average ± standard deviation, read-out: EC50

For `Fc1ccccc1-c1nc2ccn(Cc3ccc(-c4ccc(C(F)(F)F)cc4C(F)(F)F)nn3)cc-2n1` [Compound 1, 5-((6-(2,4-bis(trifluoromethyl)phenyl)pyridazin-3-yl)methyl)-2-(2-fluorophenyl)-5H-imidazo[4,5-c]pyridine], the “Antagonism Volume” value [1] was 0 ± 0 nM^2, the “Synergy Volume” value [1] was 70 ± 26 nM^2 and the Uncured colony number [2] was 657. The “Replicon RNA log drop” value (genotype 1b replicon RNA) was −1.0 log, the “Replicon RNA log drop” value (genotype 1b replicon RNA; [22]) was −1.0 log and the CC50 at 3 days [3] was greater than 44400 nM. The EC50 (HCV genotype 1a replicon [4]; [23]) was 19 ± 8 nM, the “Interaction (cytotoxicity)” value ([5]; in combination with Compound 4) was “Additivity (Additivity: ≤25 and >−25 nM^2%)” and the “Antagonism Volume (cytotoxicity)” value [5] was 0 ± 1 nM^2%. For the same compound, the “Synergy Volume (cytotoxicity)” value [5] was 13 ± 11 nM^2%, the “Antagonism Volume” value [6] was −17 ± 0.7 nM^2 and the “Synergy Volume” value [6] was 34 nM^2 and 34 ± 9.9 nM^2. The “increase of exposure of Compound 1 by Compound 2” value ([7]; co-administered with Compound 2) was 2-3 ×, the “effect on drug metabolizing systems” value ([7]; in vivo) was “does not appear that Compound 1 affects drug metabolizing systems” and the CC50 ([8]; read-out: CC50) was greater than 44400 nM. The “Antagonism Volume” value (HCV genotype 1a replicon [9]) was −1 ± 2 nM^2% and the “Synergy Volume” value (HCV genotype 1a replicon [9]) was 34 ± 26 nM^2%.

With `COc1ccc2c(O[C@@H]3C[C@H]4C(=O)N[C@]5(P(=O)(O)Cc6c(F)cccc6F)C[C@H]5CCCCCCC[C@H](NC(=O)OC5CCCC5)C(=O)N4C3)cc(-c3csc(NC(C)C)n3)nc2c1Cl` [Compound 2, (2R,6S,13aR,14aS,16aS)-2-(8-chloro-2-(2-(isopropylamino)thiazol-4-yl)-7-methoxyquinolin-4-yloxy)-6-(cyclopentyloxycarbonylamino)-5,16-dioxooctadecahydrocyclopropa[e]pyrrolo[1,2-a][1,4]diazacyclopentadecin-14a-yl(2,6-diflurobenzyl)phosphinic acid] the Interaction [1] was “Additive”, the “Antagonism Volume” value [1] was −7 ± 7 nM^2 and the “Synergy Volume” value [1] was 22 ± 12 nM^2. For the same compound, the EC50 (HCV genotype 1a replicon [4]; [23]) was 496 ± 135 nM, the “Interaction (cytotoxicity)” value ([5]; in combination with Compound 4) was “Additivity (Additivity: ≤25 and >−25 nM^2%)” and the “Antagonism Volume (cytotoxicity)” value [5] was 0 ± 0 nM^2%. The “Synergy Volume (cytotoxicity)” value [5] was 17 ± 14 nM^2%, the Interaction [6] was “Moderate Synergy” and the “Antagonism Volume” value [6] was −0.7 ± 0.7 nM^2. For the same compound, the “Synergy Volume” value [6] was 52 nM^2 and 52 ± 5.1 nM^2, the CC50 ([8]; read-out: CC50) was greater than 22200 nM and the Interaction (HCV genotype 1a replicon [9]) was “Additivity (Additivity: ≤25 and >−25 nM^2%)”. The “Antagonism Volume” value (HCV genotype 1a replicon [9]) was −2 ± 3 nM^2% and the “Synergy Volume” value (HCV genotype 1a replicon [9]) was 22 ± 14 nM^2%.

With `CC(C)OC(=O)[C@H](C)N[P@](=O)(OC[C@H]1O[C@@](C#N)(c2ccc3c(N)ncnn23)[C@](C)(O)[C@@H]1OC(=O)C(C)C)Oc1ccccc1` [Compound 4] the “Antagonism Volume” value [1] was −1 ± 3 nM^2, the “Synergy Volume” value [1] was 26 ± 28 nM^2 and the Uncured colony number [2] was 1054. The “Compound concentration able to induce replicon RNA 1-1.5 log drop in a 6 day assay” value (genotype 1b replicon RNA; genotype 1b replicon cells, 6 days) was 1000 nM, the “Replicon RNA log drop” value (genotype 1b replicon RNA; [22]) was −1.2 log and the EC50 (HCV genotype 1a replicon [4]; [23]) was 201 ± 74 nM. The “Interaction (cytotoxicity)” value ([5]; in combination with Ribavirin (Table IX)) was “Additivity (Additivity: ≤25 and >−25 nM^2%)”.

With `CC1=CC[C@H](C(=O)N(c2cc(C#CC(C)(C)C)sc2C(=O)O)[C@H]2CC[C@](O)(CO[C@H]3CCOC3)CC2)CC1` [Compound 5, 5-(3,3-dimethylbut-1-yn-1-yl)-3-[(cis-4-hydroxy-4-{[(3S)-tetrahydrofuran-3-yloxy]methyl}cyclohexyl){[(1R)-4-methylcyclohex-3-en-1-yl]carbonyl}amino]thiophene-2-carboxylic acid] the Interaction (HCV genotype 1a replicon [10]) was “Additive”, the EC50 (HCV genotype 1a replicon [11]) was 14 nM and the CC50 at 3 days [3] was greater than 44400 nM. For the same compound, the EC50 (HCV genotype 1a replicon [4]; [23]) was 15 ± 2.4 nM, the “Cytotoxicity at Highest Concentration of Compound Combinations (% inhibition on cell growth)” value ([12]; with 320 nM Compound 10 and the highest concentration of the listed compound) was 4.3 ± 2.9% and the “Interaction (cytotoxicity)” value ([5]; in combination with Compound 4) was “Additivity (Additivity: ≤25 and >−25 nM^2%)”. For the same compound, the “Antagonism Volume (cytotoxicity)” value [5] was −10 ± 7 nM^2%, the “Synergy Volume (cytotoxicity)” value [5] was 15 ± 8 nM^2% and the CC50 ([8]; read-out: CC50) was greater than 44400 nM. For the same compound, the “Antagonism Volume” value (HCV genotype 1a replicon [9]) was −1 ± 3 nM^2% and the “Synergy Volume” value (HCV genotype 1a replicon [9]) was 26 ± 28 nM^2%.

With `CC(C)C(=O)OCC1O[C@@H](n2ccc(N)nc2=O)[C@](C)(F)[C@@H]1OC(=O)C(C)C` (stereo partly shown) [Compound 7] the Interaction [6] was “Moderate Synergy”, the “Antagonism Volume” value [6] was −0.2 ± 0.1 nM^2 and the “Synergy Volume” value [6] was 51 nM^2 and 51 ± 7.8 nM^2.

For `NC(=O)c1ncn([C@@H]2O[C@H](CO)[C@@H](O)[C@H]2O)n1` [Ribavirin, 1-β-D-ribofuranosyl-1H-1,2,4-Triazole-3-carboxamide, reference compound], the Interaction [1] was “Additive”, the “Antagonism Volume” value [1] was −12 ± 9 nM^2 and the “Synergy Volume” value [1] was 12 ± 8 nM^2. The EC50 [13] was 2.6 nM, the Interaction (HCV genotype 1a replicon [10]) was “Minor” and the EC50 [14] was 1 nM. The EC50 (HCV genotype 1a replicon [11]) was 33600 nM, the CC50 at 3 days [3] was greater than 88800 nM and the EC50 (HCV genotype 1a replicon [4]; [23]) was 36500 ± 17500 nM. The EC50 [15] was 6.7 nM, the EC50 [16] was 0.6 nM and the EC50 (GT1b wild-type replicon) was 6.6 nM. The EC50 [17] was 0.6 nM, the cell viability ([12]; combined with Compound 10, highest combined concentrations tested) was “greater than 85%” and the Interaction [6] was “Moderate Synergy”. The “Antagonism Volume” value [6] was −0.5 ± 0.1 nM^2, the “Synergy Volume” value [6] was 61 nM^2 and 61 ± 0.5 nM^2 and the CC50 ([8]; read-out: CC50) was greater than 88800 nM. The EC50 (GT2a wild-type replicon) was 8.3 nM, the steady-state plasma concentration [18] was 6 to 11 µM and the EC50 [19] was 6.2 nM. For the same compound, the EC50 [20] was 0.6 nM, the “Antagonism Volume” value (HCV genotype 1a replicon [9]) was −43 nM^2% and −43 ± 20 nM^2% and the “Synergy Volume” value (HCV genotype 1a replicon [9]) was 1 ± 1 nM^2%. For the same compound, the EC50 [21] was 1.6 nM.

For IFN-α, the EC50 (HCV genotype 1a replicon [4]; IFN-α in Units per milliliter) was 1.4 ± 0.3^b U/mL, the “Interaction (cytotoxicity)” value ([5]; in combination with Compound 4) was “Additivity (Additivity: ≤25 and >−25 nM^2%)” and the “Antagonism Volume (cytotoxicity)” value [5] was −7 ± 13 nM^2%. The “Synergy Volume (cytotoxicity)” value [5] was 8 ± 12 nM^2%, the Interaction [6] was “Minor Synergy” and the “Antagonism Volume” value [6] was 0.0 ± 0.0 nM^2. For the same compound, the “Synergy Volume” value [6] was 32 nM^2 and 32 ± 1.4 nM^2, the CC50 ([8]; IFN-α in Units per milliliter) was >50^b U/mL and the Interaction (HCV genotype 1a replicon [9]) was “Additivity (Additivity: ≤25 and >−25 nM^2%)”. For the same compound, the “Antagonism Volume” value (HCV genotype 1a replicon [9]) was 0 ± 0 nM^2% and the “Synergy Volume” value (HCV genotype 1a replicon [9]) was 12 ± 6 nM^2%.
